Test results: ChEMBL document CHEMBL3091305, “Metabolism-guided discovery of a potent and orally bioavailable urea-based calcimimetic for the treatment of secondary hyperparathyroidism” (Bioorg Med Chem Lett, 2013)

Assays:
in vivo [1] = conditions: Sprague-Dawley, rat, iv, 0.5 mg/kg
in vivo [2] = conditions: Sprague-Dawley, rat, po, 2 mg/kg

## NS(=O)(=O)c1ccc(-c2nsc(NC(=O)N(CCC(c3ccc(F)cc3)c3ccc(F)cc3)CCN3CCOCC3)n2)cc1
In vivo [1]
  clearance: 26.7 mL/min/kg
In vivo [2]
  bioavailability: 39%

## CS(=O)(=O)Nc1ccc(-c2csc(NC(=O)N(CCC(c3ccccc3)c3ccccc3)CCN3CCOCC3)n2)cc1
In vivo [1]
  clearance: 63.3 mL/min/kg
